Values of other authors, collected in article PMC5958064, “Single cell analysis of kynurenine and System L amino acid transport in T cells” (Nature Communications, 2018).

Test system: Cyp1A1 expression in U87 glioma cells
Parameters: method as in PMID 21976023
Conditions: read-out: EC50 to drive Cyp1A1 expression; cited from earlier work

Nc1ccccc1C(=O)CC(N)C(=O)O (stereo not shown) [kynurenine]
EC50: 12.3 µM
